Laboratory results from ChEMBL document CHEMBL1131649, “A novel series of N-(hexahydro-1,4-diazepin-6-yl) and N-(hexahydroazepin- 3-yl)benzamides with high affinity for 5-HT3 and dopamine D2 receptors” (Bioorg Med Chem Lett, 1998).

Legend:
Format in all cases: cell membranes
[1] = biological target: T1, Serotonin 3 (5-HT3) receptor (Rattus norvegicus, UniProt P35563+Q9JJ16); assay: Binding affinity against 5-hydroxytryptamine 3 receptor in rat cortical membrane using [3H]GR-65630 as radioligand
T1 sequence (P35563 whole entry): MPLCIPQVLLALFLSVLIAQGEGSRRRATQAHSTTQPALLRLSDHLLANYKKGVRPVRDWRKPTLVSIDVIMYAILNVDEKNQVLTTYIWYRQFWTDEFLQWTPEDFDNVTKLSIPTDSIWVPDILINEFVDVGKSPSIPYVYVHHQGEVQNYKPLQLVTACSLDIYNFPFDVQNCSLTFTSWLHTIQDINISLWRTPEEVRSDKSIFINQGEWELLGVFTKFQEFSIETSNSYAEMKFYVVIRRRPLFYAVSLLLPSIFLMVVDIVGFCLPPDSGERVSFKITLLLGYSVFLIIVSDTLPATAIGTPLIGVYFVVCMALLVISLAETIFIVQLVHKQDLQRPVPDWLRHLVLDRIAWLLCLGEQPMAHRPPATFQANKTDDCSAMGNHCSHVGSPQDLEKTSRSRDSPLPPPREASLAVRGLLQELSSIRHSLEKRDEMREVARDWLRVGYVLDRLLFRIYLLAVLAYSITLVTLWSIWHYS
T1 sequence (Q9JJ16 whole entry): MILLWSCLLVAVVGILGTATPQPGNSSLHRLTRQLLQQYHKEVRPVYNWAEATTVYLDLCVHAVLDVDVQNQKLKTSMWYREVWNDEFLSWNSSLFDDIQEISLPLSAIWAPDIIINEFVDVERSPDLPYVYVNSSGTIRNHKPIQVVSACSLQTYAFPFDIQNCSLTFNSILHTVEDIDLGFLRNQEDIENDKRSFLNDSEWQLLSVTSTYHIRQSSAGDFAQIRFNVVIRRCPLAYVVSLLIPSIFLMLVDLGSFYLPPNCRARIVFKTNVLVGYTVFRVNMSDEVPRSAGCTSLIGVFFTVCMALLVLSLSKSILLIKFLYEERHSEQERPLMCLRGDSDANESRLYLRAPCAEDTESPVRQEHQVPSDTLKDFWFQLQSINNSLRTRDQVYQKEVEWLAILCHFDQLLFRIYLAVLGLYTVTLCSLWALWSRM

D(2) dopamine receptor [2] = biological target: T2, D(2) dopamine receptor (Rattus norvegicus, UniProt P61169); assay: Compound was tested for binding affinity against Dopamine receptor D2 in rat brain synaptic membrane using [3H]-spiperone as radioligand
T2 sequence (P61169 whole entry): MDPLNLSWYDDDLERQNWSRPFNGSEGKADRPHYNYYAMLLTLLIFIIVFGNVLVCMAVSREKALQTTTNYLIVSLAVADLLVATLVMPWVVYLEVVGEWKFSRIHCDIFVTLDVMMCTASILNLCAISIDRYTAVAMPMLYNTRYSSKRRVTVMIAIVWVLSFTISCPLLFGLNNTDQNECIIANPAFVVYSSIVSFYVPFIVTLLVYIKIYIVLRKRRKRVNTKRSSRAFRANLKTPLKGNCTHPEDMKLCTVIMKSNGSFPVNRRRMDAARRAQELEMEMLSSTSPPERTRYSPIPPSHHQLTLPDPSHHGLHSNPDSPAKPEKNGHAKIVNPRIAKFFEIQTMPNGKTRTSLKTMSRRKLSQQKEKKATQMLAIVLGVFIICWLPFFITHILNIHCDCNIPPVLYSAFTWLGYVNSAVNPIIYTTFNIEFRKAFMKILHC

D(2) dopamine receptor [3] = biological target: T2, D(2) dopamine receptor; assay: Binding affinity against dopamine D2 receptor in rat brain synaptic membrane using [3H]-spiperone as radioligand

| SMILES | IC50 [1] [nM] | IC50 (D(2) dopamine receptor [2]) [nM] | IC50 (D(2) dopamine receptor [3]) [nM] |
| --- | --- | --- | --- |
| COc1cc(N)c(Cl)cc1C(=O)NC1CCCCN(C)C1 (stereo unspecified) | 36 | – | – |
| COc1cc(N)c(Cl)cc1C(=O)NC1CN(C)CCN(C)C1 | 9.6 | > 1000 | – |
| CCN1CCN(C)CC(NC(=O)c2cc(Cl)c(N)cc2OC)C1 (stereo unspecified) | 8.5 | – | 127 |
| CCNc1cc(OC)c(C(=O)NC2CN(C)CCN(CC)C2)cc1Cl (stereo unspecified) | 1.9 | – | 181 |
| CCN1CCN(C)CC(NC(=O)c2cc(Cl)c(NC)cc2OC)C1 (stereo unspecified) | 4.8 | – | 61 |
| CCN1CCN(C)C[C@H](NC(=O)c2cc(Cl)c(N)cc2OC)C1 | 7 | – | 517 |
| CCN1CCCC[C@@H](NC(=O)c2cc(Cl)c(NC)cc2OC)C1 | 97 | – | 4.5 |
| CCN1CCCCC(NC(=O)c2cc(Cl)c(N)cc2OC)C1 (stereo unspecified) | 33 | – | 39 |
| CCNc1cc(OC)c(C(=O)NC2CCCCN(CC)C2)cc1Cl (stereo unspecified) | 50 | – | 25 |
| Cc1nccn1CC1CCc2c(c3ccccc3n2C)C1=O (stereo unspecified) [ONDANSETRON] | – | – | > 1000 |
| CCN1CCCC[C@@H](NC(=O)c2cc(Cl)c(N)cc2OC)C1 | 134 | – | 19 |
| COc1cc(N)c(Cl)cc1C(=O)NC1CCCCN(C(C)C)C1 (stereo unspecified) | 640 | – | 87 |
| CCN1CCCC[C@H](NC(=O)c2cc(Cl)c(N)cc2OC)C1 | 10 | – | > 1000 |
| CCCN1CCCCC(NC(=O)c2cc(Cl)c(N)cc2OC)C1 (stereo unspecified) | 37 | – | 57 |
| CCN1CCCC[C@H](NC(=O)c2cc(Cl)c(NC)cc2OC)C1 | 4.5 | – | 367 |
| CCN1CCN(C)C[C@H](NC(=O)c2cc(Cl)c(NC)cc2OC)C1 | 1.5 | – | 320 |
| CCN1CCCCC(NC(=O)c2cc(Cl)c(NC)cc2OC)C1 (stereo unspecified) | 6.6 | – | 11 |
| CCCN1CCN(C)CC(NC(=O)c2cc(Cl)c(N)cc2OC)C1 (stereo unspecified) | 24 | – | 218 |
| CCN1CCN(C)C[C@@H](NC(=O)c2cc(Cl)c(N)cc2OC)C1 | 12 | – | 87 |
